# Test system: T1, Paenibacillus sp. LC231
# T1 construct: LC231
# Experiment: microbe, parasite or virus in culture
# Design: antibacterial susceptibility, minimal inhibitory concentration (quantitative antibiogram)
# Text: We generated a quantitative antibiogram for Paenibacillus sp. LC231 for 40 different antibiotics that target diverse cellular processes and compared it with the susceptibility of a surface strain of Paenibacillus lautus ATCC 43898, the pathogen Staphylococcus aureus RN4220 and the environmental bacterium Kocuria rhizophila (formerly identified as Micrococcus luteus) (Supplementary Tables 1 and 2). […] Further experiments in this study investigate the molecular basis of resistance and not the contribution of each genetic determinant to the resistance phenotype of Paenibacillus sp. LC231. […] We focused our investigation on Paenibacillus sp. LC231 and determined that in addition to resistance to 14 classes of antibiotic, it inactivates 7 distinct classes.
row,Structure (SMILES),MIC
1,CC[C@H]1OC(=O)[C@H](C)[C@@H](O[C@H]2C[C@@](C)(OC)[C@@H](O)[C@H](C)O2)[C@H](C)[C@@H](O[C@@H]2O[C@H](C)C[C@H](N(C)C)[C@H]2O)[C@](C)(O)C[C@@H](C)CN(C)[C@H](C)[C@@H](O)[C@]1(C)O [Azithromycin],16 µg/mL
2,NCC[C@H](O)C(=O)N[C@@H]1C[C@H](N)[C@@H](O[C@H]2O[C@H](CN)[C@@H](O)[C@H](O)[C@H]2O)[C@H](O)[C@H]1O[C@H]1O[C@H](CO)[C@@H](O)[C@H](N)[C@H]1O [Amikacin],16 µg/mL
3,CC[C@H]1OC(=O)C[C@@H](O)[C@H](C)[C@@H](O[C@@H]2O[C@H](C)[C@@H](O[C@H]3C[C@@](C)(O)[C@@H](O)[C@H](C)O3)[C@H](N(C)C)[C@H]2O)[C@@H](CC=O)C[C@@H](C)C(=O)/C=C/C(C)=C/[C@@H]1CO[C@@H]1O[C@H](C)[C@@H](O)[C@@H](OC)[C@H]1OC [tylosin],16 µg/mL
4,CN[C@@H]1[C@H](O)[C@H](NC)[C@H]2O[C@@]3(O)C(=O)C[C@@H](C)O[C@H]3O[C@@H]2[C@H]1O [Spectinomycin],≥ 128 µg/mL
5,CCn1cc(C(=O)O)c(=O)c2ccc(C)nc21 [Nalidixic acid],4 µg/mL
6,NC[C@H]1O[C@H](O[C@H]2[C@H](O)[C@@H](O[C@H]3O[C@H](CO)[C@@H](O)[C@H](N)[C@H]3O)[C@H](N)C[C@@H]2N)[C@H](O)[C@@H](O)[C@@H]1O [Kanamycin],≥ 128 µg/mL
7,O=C(N[C@H](CO)[C@H](O)c1ccc([N+](=O)[O-])cc1)C(Cl)Cl [chloramphenicol],32 µg/mL
8,CN(C)[C@@H]1C(O)=C(C(N)=O)C(=O)[C@@]2(O)C(O)=C3C(=O)c4c(O)cccc4[C@@](C)(O)[C@H]3C[C@@H]12 [Tetracycline],≥ 128 µg/mL
9,CC1=C(C(=O)O)N2C(=O)[C@@H](NC(=O)[C@H](N)c3ccccc3)[C@H]2SC1 [Cephalexin],≥ 128 µg/mL
10,CC1(C)S[C@@H]2[C@H](NC(=O)[C@H](N)c3ccccc3)C(=O)N2[C@H]1C(=O)O [Ampicillin],8 µg/mL
11,CCC[C@@H]1C[C@@H](C(=O)N[C@@H]([C@H]2O[C@H](SC)[C@H](O)[C@@H](O)[C@H]2O)[C@H](C)Cl)N(C)C1 [Clindamycin],16 µg/mL
12,C/C(=C\C(=O)OCCCCCCCCC(=O)O)C[C@@H]1OC[C@H](C[C@@H]2O[C@H]2[C@@H](C)[C@H](C)O)[C@@H](O)[C@H]1O [Mupirocin],≥ 100 µg/mL

# The next compounds have a lower MIC than those just listed; values first:
row,MIC,Structure (SMILES)
1,2 µg/mL,NC[C@@H]1O[C@H](O[C@H]2[C@@H](O)[C@H](O[C@@H]3[C@@H](O)[C@H](N)C[C@H](N)[C@H]3O[C@H]3O[C@H](CN)[C@@H](O)[C@H](O)[C@H]3N)O[C@@H]2CO)[C@H](N)[C@@H](O)[C@@H]1O [Neomycin]
2,2 µg/mL,CNC(C)[C@@H]1CC[C@@H](N)[C@@H](O[C@H]2[C@H](O)[C@@H](O[C@H]3OC[C@](C)(O)[C@H](NC)[C@H]3O)[C@H](N)C[C@@H]2N)O1 (some centres unmarked) [Gentamicin]
3,2 µg/mL,C[C@@H](O)[C@H]1C(=O)N2C(C(=O)O)=C(S[C@@H]3CN[C@H](C(=O)N(C)C)C3)[C@H](C)[C@H]12 [Meropenem]
4,2 µg/mL,CC[C@H]1OC(=O)[C@H](C)C(=O)[C@H](C)[C@@H](O[C@@H]2O[C@H](C)C[C@H](N(C)C)[C@H]2O)[C@](C)(OC)C[C@@H](C)C(=O)[C@H](C)[C@H]2N(CCCCn3cnc(-c4cccnc4)c3)C(=O)O[C@]12C [Telithromycin]
5,2 µg/mL,CC[C@H]1OC(=O)[C@H](C)[C@@H](O[C@H]2C[C@@](C)(OC)[C@@H](O)[C@H](C)O2)[C@H](C)[C@@H](O[C@@H]2O[C@H](C)C[C@H](N(C)C)[C@H]2O)[C@](C)(O)C[C@@H](C)C(=O)[C@H](C)[C@@H](O)[C@]1(C)O [Erythromycin]
6,0.25 µg/mL,CC[C@H]1OC(=O)[C@H](C)[C@@H](O[C@H]2C[C@@](C)(OC)[C@@H](O)[C@H](C)O2)[C@H](C)[C@@H](O[C@@H]2O[C@H](C)C[C@H](N(C)C)[C@H]2O)[C@](C)(OC)C[C@@H](C)C(=O)[C@H](C)[C@@H](O)[C@]1(C)O [Clarithromycin]
7,0.25 µg/mL,O=C(O)c1cn(C2CC2)c2cc(N3CCNCC3)c(F)cc2c1=O [Ciprofloxacin]
8,0.25 µg/mL,C[C@H]1COc2c(N3CCN(C)CC3)c(F)cc3c(=O)c(C(=O)O)cn1c23 [Levofloxacin]

# From article PMC5155152, “A diverse intrinsic antibiotic resistome from a cave bacterium” (Nature Communications, 2016)
